Assay type in all cases: functional
Assay [1] concerns Pseudomonas aeruginosa. The assay can be described thus: Antibacterial activity against Pseudomonas aeruginosa after 24 hr by microbroth dilution method. Background: In broth dilution the organism is exposed to a series of concentrations in liquid medium.
In assay [2] the test system is Staphylococcus aureus. Description: Antibacterial activity against Staphylococcus aureus assessed as diameter of growth inhibition zone at 100 mg/ml after 24 hr by agar well diffusion method. Conditions: read-out: DIZ. (A growth-free zone around the sample is the usual read-out of agar diffusion tests.)
Assay [3] concerns Escherichia coli. The assay can be described thus: Antibacterial activity against Escherichia coli assessed as diameter of growth inhibition zone at 100 mg/ml after 24 hr by agar well diffusion method. Conditions: read-out: DIZ.
The subject of assay [4] is Staphylococcus aureus. Description: Antibacterial activity against Staphylococcus aureus after 24 hr by microbroth dilution method.
The subject of assay [5] is Escherichia coli. Description: Antibacterial activity against Escherichia coli after 24 hr by microbroth dilution method.
Assay [6] deals with Salmonella typhi. The assay can be described thus: Antibacterial activity against Salmonella enterica subsp. enterica serovar Typhi assessed as diameter of growth inhibition zone at 100 mg/ml after 24 hr by agar well diffusion method. Conditions: read-out: DIZ.
Assay [7] relates to Salmonella typhi. Description: Antibacterial activity against Salmonella enterica subsp. enterica serovar Typhi assessed after 24 hr by microbroth dilution method.
Assay [8] relates to Pseudomonas aeruginosa. The assay can be described thus: Antibacterial activity against Pseudomonas aeruginosa assessed as diameter of growth inhibition zone at 100 mg/ml after 24 hr by agar well diffusion method. The settings on record: read-out: DIZ.
Assay [9] deals with Metaphire posthuma. The assay can be described thus: Antihelminthic activity against Pheretima posthuma assessed as paralysis time at 50 mg/ml (reference value: 63.33 +/-0.87 min).
Assay [10] has as its system Metaphire posthuma. The assay can be described thus: Antihelminthic activity against Pheretima posthuma assessed as paralysis time at 150 mg/ml (reference value: 63.33 +/-0.87 min).
For assay [11], the system named is Metaphire posthuma. Description: Antihelminthic activity against Pheretima posthuma assessed as paralysis time at 100 mg/ml (reference value: 63.33 +/-0.87 min).
Assay [12] has as its system Metaphire posthuma. Description: Antihelminthic activity against Pheretima posthuma assessed as death time at 150 mg/ml (reference value: 198.33 +/-2.61 min).
For assay [13], the system named is Metaphire posthuma. Description: Antihelminthic activity against Pheretima posthuma assessed as death time at 100 mg/ml (reference value: 198.33 +/-2.61 min).
Assay [14] concerns Metaphire posthuma. The assay can be described thus: Antihelminthic activity against Pheretima posthuma assessed as death time at 200 mg/ml (reference value: 198.33 +/-2.61 min).
Assay [15] concerns Metaphire posthuma. The assay can be described thus: Antihelminthic activity against Pheretima posthuma assessed as death time at 50 mg/ml (reference value: 198.33 +/-2.61 min).
For assay [16], the system named is Metaphire posthuma. The assay can be described thus: Antihelminthic activity against Pheretima posthuma assessed as paralysis time at 200 mg/ml (reference value: 63.33 +/-0.87 min).

Converted amounts (≈) assume the structure as drawn.

What is called MBC is the lowest tested concentration that kills the bacteria rather than only halting them. The low end stands for greater bactericidal potency, the high end for weaker bactericidal potency. For orientation: MIC means the least concentration at which growth counts as inhibited. A higher MIC goes with weaker potency. As for `O=C(O)c1cn(C2CC2)c2cc(N3CCNCC3)c(F)cc2c1=O` [CIPROFLOXACIN], the MBC in assay [1] was determined as 6.25 µg/mL (≈ 18.9 µM); in assay [4], 12.5 µg/mL (≈ 37.7 µM); in assay [5], 12.5 µg/mL (≈ 37.7 µM); in assay [7], 6.25 µg/mL (≈ 18.9 µM). The zone of inhibition at 100000 µg/mL in assay [2] worked out at 18.1 mm; in assay [3], 10.2 mm; in assay [6], 29 mm; in assay [8], 31.8 mm. The compound further gave an MIC in assay [7] of 3.12 µg/mL (≈ 9.43 µM).
For `C/C(=C/CC/C=C/CO)CC/C=C(/C)CC/C=C(\C)CO` [POLYPRENOL], the MBC turned out to be 12.5 µg/mL (≈ 42.7 µM) in [1], 25 µg/mL (≈ 85.5 µM) in assay [4], 25 µg/mL (≈ 85.5 µM) in [5] and 12.5 µg/mL (≈ 42.7 µM) in assay [7]. For the same compound, the MIC in assay [1] was 6.25 µg/mL (≈ 21.4 µM); in [4] it was 12.5 µg/mL (≈ 42.7 µM); in [5] it was 12.5 µg/mL (≈ 42.7 µM); in assay [7] it was 6.25 µg/mL (≈ 21.4 µM). For the same compound, the Time is recorded as 51.57 min in assay [9]; 39.63 min in assay [10]; 43.37 min in [11]; 48.5 min in assay [12]; 55.13 min in assay [13]; 44.47 min in [14]. Moreover, the Time is 81.7 min in [15] and 36.17 min in [16]. Moreover, the zone of inhibition at 100000 µg/mL came out at 9.1 mm in [2], 5.6 mm in [3], 13.1 mm in assay [6] and 14.7 mm in assay [8].
As for `C1CNCCN1.C1CNCCN1.C1CNCCN1.O.O=C(O)CC(O)(CC(=O)O)C(=O)O.O=C(O)CC(O)(CC(=O)O)C(=O)O` [PIPERAZINE CITRATE], the Time in assay [9] was 32.44 min; in assay [15] it was 40.72 min.

For the origin of these results see ChEMBL document CHEMBL3046263, “Isolation, characterization, antibacterial, antihelminthic, and in silico studies of polyprenol from Kirganelia reticulata Baill” (2013).
